Reference: patent US8975406B2, “Compound useful for the treatment of degenerative and inflammatory diseases” (Galapagos N.V., priority 2011, dated 2015)
pIC50: −log10 of the molar value.

How the values were obtained:
Recombinant human JAK1 = target: T1, Recombinant human JAK1 (Homo sapiens, UniProt P23458); assay: JAK1 Ulight-JAK1 peptide assay; assay type: biochemical; conditions: Ulight-JAK1(tyr1023) peptide, 7 μM ATP
T1 construct: catalytic domain (amino acids 866-1154; catalog number PV4774); purchased Invitrogen PV4774
T1 sequence (P23458 866-1154): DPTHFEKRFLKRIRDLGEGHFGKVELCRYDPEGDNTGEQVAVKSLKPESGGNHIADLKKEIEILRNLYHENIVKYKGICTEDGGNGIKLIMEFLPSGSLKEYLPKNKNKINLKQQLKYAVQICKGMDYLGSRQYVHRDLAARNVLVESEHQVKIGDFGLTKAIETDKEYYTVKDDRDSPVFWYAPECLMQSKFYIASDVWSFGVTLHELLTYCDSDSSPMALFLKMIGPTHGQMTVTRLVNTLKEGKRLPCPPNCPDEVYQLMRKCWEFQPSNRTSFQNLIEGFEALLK
Description: Recombinant human JAK1 (catalytic domain, amino acids 866-1154; catalog number PV4774) was purchased from Invitrogen. 1 ng of JAK1 was incubated with 20 nM Ulight-JAK1(tyr1023) peptide (Perkin Elmer catalog number TRF0121) in kinase reaction buffer (25 mM MOPS pH6.8, 0.01% Brij-35, 5 mM MgCl2, 2 mM DTT, 7 μM ATP) with or without 4 μL containing test compound or vehicle (DMSO, 1% final concentration), in a total volume of 20 μL, in a white 384 Opti plate (Perkin Elmer, catalog number 6007290). After 60 min at room temperature, reactions were stopped by adding 20 μL/well of detection mixture (1× detection buffer (Perkin Elmer, catalog number CR97-100C), 0.5 nM Europium-anti-phosphotyrosine (PT66) (Perkin Elmer, catalog number AD0068), 10 mM EDTA). Readout is performed using the Envision with excitation at 320 nm and measuring emission at 615 nm (Perkin Elmer). Kinase activity was calculated by subtracting relative fluorescence units (RFU) obtained in the presence of a positive control inhibitor (10 μM staurosporine) from RFU obtained in the presence of vehicle. The ability of a test compound to inhibit this activity was determined as: Percentage inhibition=((RFU determined for sample with test compound present−RFU determined for sample with positive control inhibitor)divided by(RFU determined in the presence of vehicle−RFU determined for sample with positive control inhibitor))*100.
(§1) Dose dilution series were prepared for the compounds enabling the testing of dose-response effects in the JAK1 assay and the calculation of the IC50 for the compound. Each compound is routinely tested at concentration of 20 μM followed by a ⅕ serial dilution, 10 points in a final concentration of 1% DMSO. When potency of compound series increases, more dilutions are prepared and/or the top concentration are lowered (e.g. 5 μM, 1 μM). The data are expressed as the average IC50 from the assays±standard error of the mean.

Recombinant human JAK2 = target: T2, Recombinant human JAK2 (Homo sapiens, UniProt O60674); assay: JAK2 Ulight-JAK1 peptide assay; assay type: biochemical; conditions: Ulight-JAK1(tyr1023) peptide, 7.5 μM ATP
T2 construct: catalytic domain (amino acids 808-1132; catalog number PV4210); GST; purchased Invitrogen PV4210
T2 sequence (O60674 808-1132): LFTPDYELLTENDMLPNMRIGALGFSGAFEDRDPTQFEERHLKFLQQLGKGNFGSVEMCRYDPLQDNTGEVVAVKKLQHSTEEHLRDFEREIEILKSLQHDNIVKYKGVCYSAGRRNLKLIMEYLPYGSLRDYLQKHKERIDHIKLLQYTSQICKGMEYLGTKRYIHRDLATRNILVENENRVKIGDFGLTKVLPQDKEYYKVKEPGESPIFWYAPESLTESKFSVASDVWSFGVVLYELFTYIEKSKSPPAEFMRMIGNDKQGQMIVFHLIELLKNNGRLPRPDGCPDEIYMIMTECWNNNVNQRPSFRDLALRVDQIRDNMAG
Description: Recombinant human JAK2 (catalytic domain, amino acids […]; catalog number PV4210) was purchased from Invitrogen. 0.0125 mU of JAK2 was incubated with 25 nM Ulight-JAK1(tyr1023) peptide (Perkin Elmer catalog number TRF0121) in kinase reaction buffer (25 mM HEPES pH7.0, 0.01% Triton X-100, 7.5 mM MgCl2, 2 mM DTT, 7.5 μM ATP) with or without 4 μL containing test compound or vehicle (DMSO, 1% final concentration), in a total volume of 20 μL, in a white 384 Opti plate (Perkin Elmer, catalog number 6007290). After 60 min at room temperature, reactions were stopped by adding 20 μL/well of detection mixture (1× detection buffer (Perkin Elmer, catalog number CR97-100C), 0.5 nM Europium-anti-phosphotyrosine (PT66) (Perkin Elmer, catalog number AD0068), 10 mM EDTA). Readout is performed using the Envision with excitation at 320 nm and measuring emission at 615 nm (Perkin Elmer). Kinase activity was calculated by subtracting relative fluorescence units (RFU) obtained in the presence of a positive control inhibitor (10 μM staurosporine) from RFU obtained in the presence of vehicle. The ability of a test compound to inhibit this activity was determined as: Percentage inhibition=((RFU determined for sample with test compound present−RFU determined for sample with positive control inhibitor)divided by(RFU determined in the presence of vehicle−RFU determined for sample with positive control inhibitor))*100.
as §1, with “each compound” for “the compounds”, “JAK2” for “JAK1”

[1] = test system: JAK-STAT signalling in HeLa cells; assay: JAK-STAT signalling assay (pSTAT1(2)-luciferase reporter, OSM-triggered HeLa cells); assay type: cell-based; conditions: human OSM 33 ng/mL
Description: HeLa cells were maintained in Dulbecco's Modified Eagle's Medium (DMEM) containing 10% heat inactivated fetal calf serum, 100 U/mL penicillin and 100 μg/mL streptomycin. HeLa cells were used at 70% confluence for transfection. 20,000 cells in 87 μL cell culture medium were transiently transfected with 40 ng pSTAT1(2)-luciferase reporter (Panomics), 8 ng of LacZ reporter as internal control reporter and 52 ng of pBSK using 0.32 μL Jet-PEI (Polyplus) as transfection reagent per well in 96-well plate format. After overnight incubation at 37° C., 5% CO2, transfection medium was removed. 81 μL of DMEM+1.5% heat inactivated fetal calf serum was added. 9 μL compound at 10× concentration was added for 60 min and then 10 μL of human OSM (Peprotech) at 33 ng/mL final concentration.
All compounds were tested in duplicate starting from 20 μM followed by a ⅓ serial dilution, 8 doses in total (20 μM-6.6 μM-2.2 μM-740 nM-250 nM-82 nM-27 nM-9 nM) in a final concentration of 0.2% DMSO.
After overnight incubation at 37° C., 5% CO2 cells were lysed by adding 100 μL lysis buffer/well (PBS, 0.9 mM CaCl2, 0.5 mM MgCl2, 10% Trehalose, 0.05% Tergitol NP9, 0.3% BSA).
40 μL of cell lysate was used to read β-galactosidase activity by adding 180 μL β-Gal solution (30 μl ONPG 4 mg/mL+150 μL β-Galactosidase buffer (0.06 M Na2HPO4, 0.04 M NaH2PO4, 1 mM MgCl2)) for 20 min. The reaction was stopped by addition of 50 μL Na2CO3 1 M. Absorbance was read at 405 nm.
Luciferase activity was measured using 40 μL cell lysate plus 40 μL of Steadylite® as described by the manufacturer (Perkin Elmer), on the Envision (Perkin Elmer).
Omitting OSM was used as a positive control (100% inhibition). As negative control 0.5% DMSO (0% inhibition) was used. The positive and negative controls were used to calculate z′ and ‘percent inhibition’ (PIN) values. Percentage inhibition=((fluorescence determined in the presence of vehicle−fluorescence determined for sample with test compound present)divided by(fluorescence determined in the presence of vehicle−fluorescence determined for sample without trigger))*100.
PIN values were plotted for compounds tested in dose-response and EC50 values were derived.

Structure (SMILES)	pIC50 (Recombinant human JAK1)	pIC50 (Recombinant human JAK2)	pIC50 [1]
O=C(Nc1cc2c(-c3ccc(C(=O)N4CCCCC4)cc3)cccn2n1)C1CC1 [Compound 14, Cyclopropanecarboxylic acid {4-[4-(piperidine-1-carbonyl)-phenyl]-pyrazolo[1,5-a]pyridin-2-yl}-amide]	7.00 to 11.00	7.00 to 11.00	6.30 to 7.00
CS(=O)(=O)N1CCN(Cc2ccc(-c3cccn4nc(NC(=O)C5CC5)cc34)cc2)CC1 [Compound 15, N-(4-(4-((4-(methylsulfonyl)piperazin-1-yl)methyl)phenyl)pyrazolo[1,5-a]pyridin-2-yl)cyclopropanecarboxamide]	7.00 to 11.00	7.00 to 11.00	6.30 to 7.00
CS(=O)(=O)C1CCN(Cc2ccc(-c3cccn4nc(NC(=O)C5CC5)cc34)cc2)CC1 [Compound 17, N-(4-(4-((4-(methylsulfonyl)piperidin-1-yl)methyl)phenyl)pyrazolo[1,5-a]pyridin-2-yl)cyclopropanecarboxamide]	7.00 to 11.00	7.00 to 11.00	6.00 to 6.30
CS(=O)(=O)C1CCN(Cc2ccc(-c3cccn4nc(NC(=O)C5CC5)cc34)cc2F)CC1 [Compound 18, N-(4-(3-fluoro-4-((4-(methylsulfonyl)piperidin-1-yl)methyl)phenyl)pyrazolo[1,5-a]pyridin-2-yl)cyclopropanecarboxamide]	7.00 to 11.00	7.00 to 11.00	6.30 to 7.00
CS(=O)(=O)C1CCN(Cc2ccc(-c3cccn4nc(NC(=O)C5CC5)c(Cl)c34)cc2)CC1 [Compound 19, N-(3-chloro-4-(4-((4-(methylsulfonyl)piperidin-1-yl)methyl)phenyl)pyrazolo[1,5-a]pyridin-2-yl)cyclopropanecarboxamide]	7.00 to 11.00	6.00 to 6.30	< 6.00
CS(=O)(=O)C1CCN(Cc2ccc(-c3cccn4nc(NC(=O)C5CC5)c(Cl)c34)cc2F)CC1 [Compound 20, N-(3-chloro-4-(3-fluoro-4-((4-(methylsulfonyl)piperidin-1-yl)methyl)phenyl)pyrazolo[1,5-a]pyridin-2-yl)cyclopropanecarboxamide]	7.00 to 11.00	6.30 to 7.00	< 6.00
CC(=O)Nc1cc2c(-c3ccc(CN4CCN(S(C)(=O)=O)CC4)c(F)c3)cccn2n1 [Compound 21]	7.00 to 11.00	7.00 to 11.00	6.00 to 6.30
CS(=O)(=O)N1CCN(Cc2ccc(-c3cccn4nc(NC(=O)C5CC5)cc34)cn2)CC1 [Compound 23, N-(4-(6-((4-(methylsulfonyl)piperazin-1-yl)methyl)pyridin-3-yl)pyrazolo[1,5-a]pyridin-2-yl)cyclopropanecarboxamide]	7.00 to 11.00	6.30 to 7.00	< 6.00
CC(=O)Nc1cc2c(-c3ccc(CN4CCN(S(C)(=O)=O)C[C@H]4C)cc3)cccn2n1 [Compound 24, (R)-N-(4-(4-((2-methyl-4-(methylsulfonyl)piperazin-1-yl)methyl)phenyl)pyrazolo[1,5-a]pyridin-2-yl)acetamide]	7.00 to 11.00	6.00 to 6.30	< 6.00
CC(=O)Nc1cc2c(-c3ccc(CN4CCN(S(C)(=O)=O)CC4)cc3)cccn2n1 [Compound 25, N-(4-(4-((4-(methylsulfonyl)piperazin-1-yl)methyl)phenyl)pyrazolo[1,5-a]pyridin-2-yl)acetamide]	7.00 to 11.00	7.00 to 11.00	6.00 to 6.30
CC(=O)Nc1cc2c(-c3cnc(CN4CCN(S(C)(=O)=O)CC4)c(F)c3)cccn2n1 [Compound 26, N-(4-(5-fluoro-6-((4-(methylsulfonyl)piperazin-1-yl)methyl)pyridin-3-yl)pyrazolo[1,5-a]pyridin-2-yl)acetamide]	6.30 to 7.00	6.30 to 7.00	< 6.00
CC(=O)Nc1cc2c(-c3ccc(CN4CCS(=O)(=O)CC4)c(F)c3)cccn2n1 [Compound 27, N-{4-[4-(1,1-Dioxo-thiomorpholin-4-ylmethyl)-3-fluoro-phenyl]-pyrazolo[1,5-a]pyridin-2-yl}-acetamide]	7.00 to 11.00	7.00 to 11.00	6.30 to 7.00
CC(=O)Nc1cc2c(-c3ccc(CN4CCC(S(C)(=O)=O)CC4)c(F)c3)cccn2n1 [Compound 29, N-(4-(3-fluoro-4((4-(methylsulfonyl)piperidin-1-yl)methyl)phenyl)pyrazolo[1,5-a]pyridin-2-yl)acetamide]	7.00 to 11.00	7.00 to 11.00	< 6.00
CC(=O)Nc1cc2c(-c3ccc(CC(=O)N4CC(F)(F)C4)cc3)cccn2n1 [Compound 34, N-(4-(4-(2-(3,3-difluoroazetidin-1-yl)-2-oxoethyl)phenyl)pyrazolo[1,5-a]pyridin-2-yl)acetamide]	7.00 to 11.00	7.00 to 11.00	6.00 to 6.30
C[C@@H]1CN(S(C)(=O)=O)CCN1Cc1ccc(-c2cccn3nc(NC(=O)C4CC4)cc23)cc1 [Compound 44, (R)-N-(4-(4-((2-methyl-4-(methylsulfonyl)piperazin-1-yl)methyl)phenyl)pyrazolo[1,5-a]pyridin-2-yl)cyclopropanecarboxamide]	7.00 to 11.00	7.00 to 11.00	6.30 to 7.00
CC(=O)Nc1cc2c(-c3ccc(C(C)N4CCN(S(C)(=O)=O)CC4)cc3)cccn2n1 (stereo not drawn) [Compound 45, N-(4-(4-(1-(4-(methylsulfonyl)piperazin-1-yl)ethyl)phenyl)pyrazolo[1,5-a]pyridin-2-yl)acetamide]	7.00 to 11.00	7.00 to 11.00	6.00 to 6.30
